Results taken from patent EP0326490B2, “Synthetic peptides and mixtures thereof for detecting HIV antibodies” (ADALTIS INC., priority 1988, dated 2004).

System: HIV-2 positive sera
Assay: ELISA, single peptides identifying HIV-2 positive sera
Format: binding, human
Conditions: single peptide
Description: A preferred convenient and classical technique for the determination of antibodies against AIDS virus using a peptide or a peptide mixture of the present invention is an enzyme-linked immunosorbent assay (ELISA). According to this test a peptide or a peptide mixture of the present invention is adsorbed onto the wells of a microtiter plate. The wells are then treated with sera to be tested. After washing, anti-human IgG labeled with peroxidase is added to the wells. The determination of the peroxidase is performed with a corresponding substrate, e.g. with o-phenylene diamine. Also in this procedure the peroxidase can be exchanged by another label, e.g. by a radioactive or fluorescence label. […]
TABLE 4 provides the results of single peptides which were individually evaluated in identifying known HIV-2 positive sera.
Each well of the microtiter plate is saturated with 100 µl of a solution containing a peptide or mixture of peptides (5 µg/ml) and left overnight. […] Serum samples to be analyzed are diluted with specimen buffer (washing buffer plus casein, 0.05% w/v). […] After 10 minutes the contents of each well is treated with 0.1 ml 2N H2SO4 and the optical density read at 450 nm. […]

## CC[C@H](C)[C@H](NC(=O)[C@H](CCC(=O)O)NC(=O)[C@@H](NC(=O)[C@@H](N)CC(C)C)C(C)C)C(=O)N[C@H](C(=O)N1CCC[C@H]1C(=O)N[C@H](C(=O)NCC(=O)N[C@@H](Cc1ccccc1)C(=O)N[C@@H](C)C(=O)N1CCC[C@H]1C(=O)N[C@H](C(=O)N[C@@H](CCCCN)C(=O)N[C@@H](CCC(=O)O)C(=O)N[C@@H](CCCCN)C(=O)N[C@@H](CCCNC(=N)N)C(=O)N[C@@H](Cc1ccc(O)cc1)C(=O)N[C@@H](CO)C(=O)N[C@@H](CO)C(=O)N[C@@H](C)C(=O)N[C@@H](Cc1c[nH]cn1)C(=O)NCC(=O)N[C@@H](CCCNC(=N)N)C(=O)O)[C@@H](C)O)[C@@H](C)CC)[C@@H](C)O [Peptide 203]
  %Positive sera correctly Identified: 100%
